Values quoted from earlier work as cited in patent US9370540B2, “K2 composition and the preparation method and use of the same” (SINPHAR PHARMACEUTICAL CO., LTD., priority 2014, dated 2016).

Tested on: A549 cells
Settings: from Molecular Carcinogenesis papers

## C=C(CC[C@@H](C(=O)O)[C@H]1[C@H](O)C[C@@]2(C)C3=CC[C@H]4C(C)(C)C(=O)CC[C@]4(C)C3=CC[C@]12C)C(C)C [polyporenic acid C]
  IC50, inhibiting the growth of lung cancer cells: about 15 μg/ml
